From PubChem BioAssay AID248 (DTP/NCI, 2004)
Toxic doses and inconclusive results are not listed. Rule as the data show it: active = T/C of 150% or more; inactive = T/C below 125%.

System: L1210 leukemia ip in BDF1 mice, survival T/C
Assay: NCI In Vivo Anticancer Drug Screen. Data for tumor model L1210 Leukemia (intraperitoneal) in B6D2F1 (BDF1) mice
Conditions: endpoint: mean survival time, higher = longer survival
How it was run: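 Value reflects the ratio of survival in compound-treated mice to survival in vehicle-treated controls, with both groups carrying the same transplanted tumor.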

[1] = dose: 100.0 mg/kg/injection, schedule: Q04DX003 (ip), vehicle: saline with Tween-80
[2] = dose: 200.0 mg/kg/injection, schedule: Q04DX003 (ip), vehicle: saline with Tween-80
[3] = dose: 400.0 mg/kg/injection, schedule: Q04DX003 (ip), vehicle: saline with Tween-80
[4] = dose: 100.0 mg/kg/injection, schedule: Q04DX002 (ip), vehicle: Klucel (hydroxypropylcellulose) (HPC)
[5] = dose: 200.0 mg/kg/injection, schedule: Q04DX002 (ip), vehicle: Klucel (hydroxypropylcellulose) (HPC)
[6] = dose: 100.0 mg/kg/injection, schedule: Q04DX003 (ip), vehicle: Klucel (hydroxypropylcellulose) (HPC)
[7] = dose: 200.0 mg/kg/injection, schedule: Q04DX003 (ip), vehicle: Klucel (hydroxypropylcellulose) (HPC)
[8] = dose: 400.0 mg/kg/injection, schedule: Q04DX003 (ip), vehicle: Klucel (hydroxypropylcellulose) (HPC)
[9] = dose: 100.0 mg/kg/injection, schedule: Q01DX009 (ip), vehicle: Klucel (hydroxypropylcellulose) (HPC)
[10] = dose: 200.0 mg/kg/injection, schedule: Q01DX009 (ip), vehicle: Klucel (hydroxypropylcellulose) (HPC)
[11] = dose: 400.0 mg/kg/injection, schedule: Q01DX009 (ip), vehicle: Klucel (hydroxypropylcellulose) (HPC)
[12] = dose: 100.0 mg/kg/injection, schedule: Q01DX001 (ip), vehicle: saline
[13] = dose: 200.0 mg/kg/injection, schedule: Q01DX001 (ip), vehicle: saline
[14] = dose: 400.0 mg/kg/injection, schedule: Q01DX001 (ip), vehicle: saline
[15] = dose: 100.0 mg/kg/injection, schedule: Q01DX009 (ip), vehicle: saline with Tween-80

Measured: T/C

CC(C)=CCC/C(C)=C/Cn1cc([N+](=O)[O-])ccc1=O
inactive: dose: 100.0 mg/kg/injection, schedule: Q01DX001 (ip), vehicle: saline with Tween-80 106 % of control | [1] 111 % of control | dose: 200.0 mg/kg/injection, schedule: Q01DX001 (ip), vehicle: saline with Tween-80 101 % of control | [2] 111 % of control | dose: 400.0 mg/kg/injection, schedule: Q01DX001 (ip), vehicle: saline with Tween-80 98 % of control | [3] 102 % of control

COc1ccccc1C(=O)Nc1ccccc1SC
inactive: [4] 93 % of control | [5] 93 % of control | dose: 400.0 mg/kg/injection, schedule: Q04DX002 (ip), vehicle: Klucel (hydroxypropylcellulose) (HPC) 93 % of control

CC/C(=N\N=C(N)N)c1ccc(NC(N)=S)cc1
inactive: dose: 5.0 mg/kg/injection, schedule: Q01DX009 (ip), vehicle: saline 100 % of control | dose: 10.0 mg/kg/injection, schedule: Q01DX009 (ip), vehicle: saline 105 % of control | dose: 20.0 mg/kg/injection, schedule: Q01DX009 (ip), vehicle: saline 107 % of control | dose: 25.0 mg/kg/injection, schedule: Q01DX009 (ip), vehicle: saline 107 % of control | dose: 40.0 mg/kg/injection, schedule: Q01DX009 (ip), vehicle: saline 103 % of control | dose: 80.0 mg/kg/injection, schedule: Q01DX009 (ip), vehicle: saline 117 % of control

CNC(C)(C)C
inactive: [1] 93 % of control | [2] 93 % of control | [3] 86 % of control

Nc1nc2nnc(CNc3ccc(C(=O)NC(CCC(=O)O)C(=O)O)cc3)nc2c(=O)[nH]1 (stereo not drawn)
inactive: dose: 100.0 mg/kg/injection, schedule: Q01DX001 (ip), vehicle: Klucel (hydroxypropylcellulose) (HPC) 94 % of control | dose: 200.0 mg/kg/injection, schedule: Q01DX001 (ip), vehicle: Klucel (hydroxypropylcellulose) (HPC) 103 % of control

O=C(OOC(=O)c1ccccc1)c1ccccc1
inactive: dose: 50.0 mg/kg/injection, schedule: Q01DX001 (ip), vehicle: other 96 % of control | dose: 100.0 mg/kg/injection, schedule: Q01DX001 (ip), vehicle: other 94 % of control | dose: 200.0 mg/kg/injection, schedule: Q01DX001 (ip), vehicle: other 102 % of control | dose: 400.0 mg/kg/injection, schedule: Q01DX001 (ip), vehicle: other 102 % of control

O=P(OCC(Br)CBr)(OCC(Br)CBr)OCC(Br)CBr (stereo not drawn)
inactive: dose: 50.0 mg/kg/injection, schedule: Q04DX003 (ip), vehicle: Klucel (hydroxypropylcellulose) (HPC) 107 % of control | [6] 98 % of control | [7] 106 % of control | [8] 106 % of control

CCOC(CCc1c(-c2ccccc2)nc(NC(C)=O)[nH]c1=O)OCC
inactive: [9] 105 % of control | [10] 100 % of control | [11] 92 % of control

C#CCN(Cc1ccccc1)C(=O)Nc1cccc(Cl)c1
inactive: dose: 100.0 mg/kg/injection, schedule: Q04DX003 (ip), vehicle: other 106 % of control | dose: 200.0 mg/kg/injection, schedule: Q04DX003 (ip), vehicle: other 98 % of control | dose: 400.0 mg/kg/injection, schedule: Q04DX003 (ip), vehicle: other 96 % of control

COc1cc(C)c2c(c1OC)C(=O)CC2
inactive: [12] 94 % of control | [13] 105 % of control | [14] 88 % of control

C[N+](C)(CC(=O)Nc1ccc(Cl)c(C(F)(F)F)c1)CC(=O)c1ccc(Cl)c(Cl)c1
inactive: dose: 100.0 mg/kg/injection, schedule: Q04DX003 (ip), vehicle: saline sonified 97 % of control | dose: 200.0 mg/kg/injection, schedule: Q04DX003 (ip), vehicle: saline sonified 111 % of control | dose: 400.0 mg/kg/injection, schedule: Q04DX003 (ip), vehicle: saline sonified 100 % of control

CCCCCCCCCC(=S)N1CCN(c2ccccc2)CC1
inactive: [12] 95 % of control | [13] 93 % of control | [14] 90 % of control

c1ccc2sccc2c1
inactive: [15] 110 % of control | dose: 200.0 mg/kg/injection, schedule: Q01DX009 (ip), vehicle: saline with Tween-80 111 % of control | dose: 400.0 mg/kg/injection, schedule: Q01DX009 (ip), vehicle: saline with Tween-80 116 % of control

NC(=O)N(CCCO)/N=C\c1ccc([N+](=O)[O-])o1
inactive: [4] 100 % of control | [5] 96 % of control

Clc1ccnc2c1ccc1c(Cl)ccnc12
inactive: dose: 50.0 mg/kg/injection, schedule: Q01DX001 (ip), vehicle: carboxymethylcellulose (CMC) 88 % of control

CN(C)c1ccc([PH+](c2ccc(N(C)C)cc2)c2ccc(N(C)C)cc2)cc1.CN(C)c1ccc([PH+](c2ccc(N(C)C)cc2)c2ccc(N(C)C)cc2)cc1.[Cl][Hg][Cl]
inactive: dose: 50.0 mg/kg/injection, schedule: Q01DX009 (ip), vehicle: Klucel (hydroxypropylcellulose) (HPC) 94 % of control | [9] 90 % of control | [10] 90 % of control

O=S(=O)(O)c1cccc2nsnc12
inactive: [9] 107 % of control | [10] 109 % of control

Cn1cc(F)c(=O)[nH]c1=O
inactive: dose: 5.0 mg/kg/injection, schedule: Q01DX Z (ip), vehicle: carboxymethylcellulose (CMC) 96 % of control | dose: 10.0 mg/kg/injection, schedule: Q01DX Z (ip), vehicle: carboxymethylcellulose (CMC) 100 % of control | dose: 20.0 mg/kg/injection, schedule: Q01DX Z (ip), vehicle: carboxymethylcellulose (CMC) 113 % of control | dose: 40.0 mg/kg/injection, schedule: Q01DX Z (ip), vehicle: carboxymethylcellulose (CMC) 96 % of control

N#[N+]c1n[nH]nc1C(N)=O
inactive: dose: 25.0 mg/kg/injection, schedule: Q01DX Z (ip), vehicle: carboxymethylcellulose (CMC) 97 % of control | dose: 35.0 mg/kg/injection, schedule: Q01DX Z (ip), vehicle: carboxymethylcellulose (CMC) 95 % of control

OC1OCC(Cc2ccc3c(c2)OCO3)C1Cc1ccc2c(c1)OCO2 (stereo not drawn)
inactive: dose: 100.0 mg/kg/injection, schedule: Q01DX009 (ip), vehicle: saline 91 % of control | dose: 200.0 mg/kg/injection, schedule: Q01DX009 (ip), vehicle: saline 99 % of control | dose: 400.0 mg/kg/injection, schedule: Q01DX009 (ip), vehicle: saline 88 % of control

CN(C)c1ccc(C(/C=N\O)(c2ccc(N(C)C)cc2)c2ccc(N(C)C)cc2)cc1
inactive: [9] 101 % of control | [6] 90 % of control | [10] 96 % of control | [7] 95 % of control | [11] 101 % of control | [8] 93 % of control

CN(C)Cc1cc(C(C)(C)C)c(O)c(C(C)(C)C)c1
inactive: dose: 25.0 mg/kg/injection, schedule: Q01DX009 (ip), vehicle: saline with Tween-80 112 % of control | dose: 50.0 mg/kg/injection, schedule: Q01DX009 (ip), vehicle: saline with Tween-80 98 % of control | [15] 94 % of control | [1] 95 % of control
